From PubChem BioAssay (NCI)
“And” between values parts separate entries of the source, which are not always exact repeats. Equal entries are not always repeated.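 The compound was tested at five concentrations on cells cultured in 96-well plates, with a 48-hour exposure period. GI50 = concentration required for 50% inhibition of growth. TGI marks complete inhibition of growth.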

The molecules below were run on IGROV1 ovarian (assay: inhibition of tumour cell growth, NCI panel, 48 h).
Molecule `C[N+](C)(C)CC1CCCc2ccccc2C1=O` (configuration not stated) has a TGI of 31.7 µM. With `CN1CC(=O)N2Cc3ccccc3-n3cccc3C2C1` (configuration not stated) the TGI was > 100 µM. With `NC(=S)N/N=C/C(=O)O` the GI50 was 43.6 µM and the TGI was > 100 µM. In the case of `Cc1cn2c(=O)c3ncn(C4OC(CO)C(O)C4O)c3n(C)c2n1` (configuration not stated), the TGI is reported as > 100 µM.

Each molecule was assayed on SK-OV-3 ovarian (assay: inhibition of tumour cell growth, NCI panel, 48 h).
With `Clc1ccc2c(c1)[nH]c1c2nc2ccccn21` the TGI was > 100 µM and 63.7 µM. For `CCOC(=O)c1cnc2c(ccc3[nH]n(C)nc32)c1=O`, the TGI was > 100 µM. In the case of `NC(=S)N/N=C(\CC1OC(=O)c2ccccc21)c1ccc(Cl)cc1` (configuration not stated), the TGI is reported as > 100 µM. For `COc1ccc2occ(CCC(=O)O)c2c1`, the TGI was > 100 µM. `COC(=O)C(C(=O)c1ccccc1)C(C(=O)C(=O)Nc1ccc(OC)cc1OC)C(=O)C(=O)c1ccc(C)cc1` (configuration not stated) was tested, and the TGI was > 100 µM. Molecule `CC1(C)COC(C2(C)C(=O)C=C(c3ccccc3)c3ccccc32)=N1` (configuration not stated) has a TGI of 47.9 µM. For `O=C(Nc1ccn(CCO)c(=O)n1)c1ccccc1`, the TGI was > 100 µM. For `O=C1CCC2(c3ccc(Cl)cc3)Nc3ncccc3N12` (configuration not stated), the TGI was > 100 µM. For `COc1ccc(Sc2[nH]c(C(C)=O)c3ccccc23)cc1`, the GI50 was 1.79 µM and the TGI was 10.5 µM. With `C#CCOc1cccc(-c2ncc3cc(NC(=O)CCl)ccc3n2)c1` the GI50 was 3.58 µM and the TGI was > 100 µM. With `CC12C/C(=C\c3ccccc3)C(=O)C3C1CCCC32` the TGI was > 100 µM. With `OC(CC1SCCCS1)c1ccccc1` (configuration not stated) the TGI was > 100 µM. With `CCCCOC(=O)CNC(=O)OC/C=C/C#CC#C/C=C/COC(=O)NCC(=O)OCCCC` the GI50 was > 100 µM and the TGI was > 100 µM. With `O=C1c2ccccc2C(=O)N1CCn1ccc(NC(c2ccccc2)(c2ccccc2)c2ccccc2)nc1=O` the TGI was > 100 µM. In the case of `CC(C)(C)NNC(=O)CCn1[nH]c(=O)c(Cl)c(Cl)c1=O`, the TGI is reported as > 100 µM. In the case of `O=CCC1CCCCC1`, the TGI is reported as > 100 µM. For `CCC12CCCN(Cc3ccccc3)C1c1c(n(C)c3ccccc13)CC2` (configuration not stated), the TGI was > 253 µM. With `CSc1nc(=O)n(CCC#N)nc1SC` the TGI was > 100 µM. `Nc1ccc([N+](=O)[O-])cc1N=C/C=C/c1ccccc1` was tested, and the GI50 was 26.5 µM and the TGI was > 100 µM. Work on `Cc1cc(Nc2ccc(NC(=O)c3ccc(Nc4ccnc5ccccc45)cc3)cc2)nc(N)n1` yielded a GI50 of 7.15 µM and a TGI of 54.8 µM. For `COc1cc(-c2oc(=O)ccc2C#Cc2ccccn2)cc(OC)c1OC`, the GI50 was 3.43 µM and the TGI was 97.7 µM. With `CCN(CC)CCCN1CCc2c([nH]c3ccccc23)C1c1cccnc1` (configuration not stated) the TGI was > 100 µM. With `COC(=O)C1c2cc3c(cc2C(OC2OC(C)C(OC)C(C)(OC)C2OC)CC1(C)O)C(=O)c1c(O)cc2c(c1C3=O)OC1OC2(C)C(O)C([N+](C)(C)[O-])C1O` (configuration not stated) the TGI was > 64.1 µM. `CNCc1ccccc1-c1csc([C@@H](C)Nc2nc(C)nc3cc(OC)c(OC)cc23)c1` gave a GI50 of 4.67 µM and a TGI of 18.8 µM. For `Nc1nc(Cl)cc(NCCCCCCCCNc2cc(Cl)nc(N)n2)n1`, the TGI was > 100 µM. In the case of `CC(C)N(C(=O)C12C3C4C1C1C4(C#N)C3C12C#N)C(C)C` (configuration not stated), the TGI is reported as > 100 µM. `O=C1CCC(Cl)=CC2CCCN12` (configuration not stated) was tested, and the TGI was > 100 µM. For `c1ccc2cc(-c3cc4ccccc4s3)ccc2c1`, the TGI was > 100 µM. Molecule `CCOC(=O)C(C#N)C1=CC(=O)C(=O)c2ccc(OC)cc21` (configuration not stated) has a TGI of 56.7 µM. In the case of `Cc1ccc(S(=O)(=O)Nc2ccccc2C=O)cc1`, the TGI is reported as 94.8 µM. For `Cc1ccc(S(=O)(=O)N(C=O)N=C2CCN(Cc3ccccc3)CC2)cc1`, the TGI was > 100 µM. For `CC(C)C(CCl)NC(=O)c1cccc(C(=O)N[C@H](CCl)C(C)C)n1` (stereo in doubt), the TGI was > 100 µM. For `CCC(=O)CC(=O)CCC(=O)Nc1cc(C)ccc1C`, the TGI was > 100 µM. `CC[As](CC)SC[C@H](C)C(=O)N1CCC[C@H]1C(=O)O` showed a GI50 of 0.326 µM and a TGI of 1.05 µM. For `NC(N)=N/N=C/c1c(-c2ccsc2)nc2sccn12`, the GI50 was 14.3 µM and the TGI was 30.3 µM. `O=c1/c(=C/c2ccccc2[N+](=O)[O-])sc2nnc(-c3ccco3)n12` was tested, and the TGI was > 100 µM. With `C[N+](C)(C)CC1CCCc2ccccc2C1=O` (configuration not stated) the TGI was 34.5 µM. With `CN1CC(=O)N2Cc3ccccc3-n3cccc3C2C1` (configuration not stated) the TGI was > 100 µM. `NC(=S)N/N=C/C(=O)O` was tested, and the GI50 was > 100 µM and the TGI was > 100 µM. Molecule `Cc1ccc(SC2c3ccc(C)cc3Oc3nc(N)c(C#N)c(N)c32)cc1` (configuration not stated) has a GI50 of 10.1 µM and a TGI of 21.7 µM. For `Cc1cn2c(=O)c3ncn(C4OC(CO)C(O)C4O)c3n(C)c2n1` (configuration not stated), the TGI was > 100 µM.
